{"source": "patent US4748165A", "about": "“Amidine derivatives” (Imperial Chemical Industries PLC, priority 1981, dated 1988)", "key": {"conscious mice": {"tested_on": "conscious mice", "test": "intravenous toxicity in conscious mice", "format": "in vivo, mouse", "conditions": "intravenously, four conscious mice, one hundred times the dose giving approximate 50% inhibition of gastric secretion in the anaesthetised rat", "procedure": "(§1) No overt toxicity or side effects were noted during the rat or dog tests. The compounds N-cyano-5-(4-[2-propylguanidino]pyrimid-2-yl)valeramidino was administered intravenously to groups of two anaesthetised rats and four conscious mice at doses which were respectively ten times and one hundred times the dose, in mg./kg., which produced an approximate 50% inhibition of gastric secretion in the anaesthetised rat."}, "anaesthetised rats": {"tested_on": "anaesthetised rats", "test": "intravenous toxicity in anaesthetised rats", "format": "in vivo", "conditions": "intravenously, two anaesthetised rats, ten times the dose giving approximate 50% inhibition of gastric secretion in the anaesthetised rat", "procedure": "as §1"}}}
{"smiles": "CCCN=C(N)Nc1ccnc(CCCCC(=N)NC#N)n1", "note": "[Example 2, N-cyano-5-(4-[2-propylguanidino]pyrimid-2-yl)valeramidine]", "values": [{"measurement": "toxic symptoms", "setting": "conscious mice", "result": "No toxic symptoms"}, {"measurement": "toxic symptoms", "setting": "anaesthetised rats", "result": "No toxic symptoms"}]}
